Assay results: PubChem BioAssay (NCI)
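Step 1: Grow cells in 96-well plates. Step 2: Expose to compound for 48 hours at 5 concentrations. Step 3: Interpolate endpoints linearly; if unreached, use highest concentration. TGI marks complete inhibition of growth.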

What was measured:
Experiment in all cases: DTP human tumour cell line panel, 48 h
A549 NSCLC = system: A549 NSCLC
NCI-H460 lung = system: NCI-H460 lung
HT29 colon = system: HT29 colon
OVCAR-5 ovarian = system: OVCAR-5 ovarian
U251 CNS = system: U251 CNS
PC-3 prostate = system: PC-3 prostate
RXF 393 renal = system: RXF 393 renal
SNB-19 CNS = system: SNB-19 CNS
SF-539 CNS = system: SF-539 CNS
UACC-62 melanoma = system: UACC-62 melanoma
OVCAR-3 ovarian = system: OVCAR-3 ovarian
HL-60(TB) leukemia = system: HL-60(TB) leukemia
M14 melanoma = system: M14 melanoma
NCI-H23 lung = system: NCI-H23 lung
EKVX NSCLC = system: EKVX NSCLC
SN12C renal = system: SN12C renal
KM12 colon = system: KM12 colon
CCRF-CEM leukemia = system: CCRF-CEM leukemia
MOLT-4 leukemia = system: MOLT-4 leukemia
786-0 renal = system: 786-0 renal
HCC-2998 colon = system: HCC-2998 colon
TK-10 renal = system: TK-10 renal
OVCAR-4 ovarian = system: OVCAR-4 ovarian
MDA-MB-231 breast = system: MDA-MB-231 breast
HCT-116 colon = system: HCT-116 colon
HCT-15 colon = system: HCT-15 colon
MDA-MB-435 = system: MDA-MB-435
SK-OV-3 ovarian = system: SK-OV-3 ovarian
MCF7 breast = system: MCF7 breast
OVCAR-8 ovarian = system: OVCAR-8 ovarian
SNB-75 CNS = system: SNB-75 CNS
SF-268 CNS = system: SF-268 CNS
SW-620 colon = system: SW-620 colon
NCI-H226 lung = system: NCI-H226 lung
UO-31 renal = system: UO-31 renal
SK-MEL-28 melanoma = system: SK-MEL-28 melanoma
HOP-92 NSCLC = system: HOP-92 NSCLC
RPMI-8226 leukemia = system: RPMI-8226 leukemia
NCI/ADR-RES ovarian = system: NCI/ADR-RES ovarian
MDA-N = system: MDA-N
COLO 205 colon = system: COLO 205 colon
SF-295 CNS = system: SF-295 CNS
DU-145 prostate = system: DU-145 prostate
UACC-257 melanoma = system: UACC-257 melanoma
HOP-62 NSCLC = system: HOP-62 NSCLC
A498 renal = system: A498 renal
LOX IMVI melanoma = system: LOX IMVI melanoma
K-562 leukemia = system: K-562 leukemia
SK-MEL-5 melanoma = system: SK-MEL-5 melanoma
ACHN renal = system: ACHN renal
CAKI-1 renal = system: CAKI-1 renal
T-47D breast = system: T-47D breast
SK-MEL-2 melanoma = system: SK-MEL-2 melanoma
IGROV1 ovarian = system: IGROV1 ovarian
NCI-H522 lung = system: NCI-H522 lung
MALME-3M melanoma = system: MALME-3M melanoma
BT-549 breast = system: BT-549 breast
SR leukemia = system: SR leukemia

SMILES: Cc1nn(-c2ccccc2)c2nc3c(c(C)nn3-c3ccccc3)c(-c3ccc(C(F)(F)F)cc3)c12
- TGI (A549 NSCLC): > 100 µM
- TGI (NCI-H460 lung): > 100 µM
- TGI (HT29 colon): > 100 µM
- TGI (OVCAR-5 ovarian): > 100 µM
- TGI (U251 CNS): > 100 µM
- TGI (PC-3 prostate): > 100 µM
- TGI (RXF 393 renal): > 100 µM
- TGI (SNB-19 CNS): > 100 µM
- TGI (SF-539 CNS): > 100 µM
- TGI (UACC-62 melanoma): > 100 µM
- TGI (OVCAR-3 ovarian): > 100 µM
- TGI (HL-60(TB) leukemia): > 100 µM
- TGI (M14 melanoma): > 100 µM
- TGI (NCI-H23 lung): > 100 µM
- TGI (EKVX NSCLC): > 100 µM
- TGI (SN12C renal): > 100 µM
- TGI (KM12 colon): > 100 µM
- TGI (CCRF-CEM leukemia): > 100 µM
- TGI (MOLT-4 leukemia): > 100 µM
- TGI (786-0 renal): > 100 µM
- TGI (HCC-2998 colon): > 100 µM
- TGI (TK-10 renal): > 100 µM
- TGI (OVCAR-4 ovarian): > 100 µM
- TGI (MDA-MB-231 breast): > 100 µM
- TGI (HCT-116 colon): > 100 µM
- TGI (HCT-15 colon): > 100 µM
- TGI (MDA-MB-435): > 100 µM
- TGI (SK-OV-3 ovarian): > 100 µM
- TGI (MCF7 breast): > 100 µM
- TGI (OVCAR-8 ovarian): > 100 µM
- TGI (SNB-75 CNS): 92.6 µM
- TGI (SF-268 CNS): > 100 µM
- TGI (SW-620 colon): > 100 µM
- TGI (NCI-H226 lung): > 100 µM
- TGI (UO-31 renal): > 100 µM
- TGI (SK-MEL-28 melanoma): > 100 µM
- TGI (HOP-92 NSCLC): > 100 µM
- TGI (RPMI-8226 leukemia): > 100 µM
- TGI (NCI/ADR-RES ovarian): > 100 µM
- TGI (MDA-N): > 100 µM
- TGI (COLO 205 colon): > 100 µM
- TGI (SF-295 CNS): > 100 µM
- TGI (DU-145 prostate): > 100 µM
- TGI (UACC-257 melanoma): > 100 µM
- TGI (HOP-62 NSCLC): > 100 µM
- TGI (A498 renal): > 100 µM
- TGI (LOX IMVI melanoma): > 100 µM
- TGI (K-562 leukemia): > 100 µM
- TGI (SK-MEL-5 melanoma): > 100 µM
- TGI (ACHN renal): > 100 µM
- TGI (CAKI-1 renal): > 100 µM
- TGI (T-47D breast): > 100 µM

SMILES: CCCCCCCCCCCCCCCCCCOP1(=O)OCCO1
- TGI (A549 NSCLC): > 100 µM
- TGI (HT29 colon): > 100 µM
- TGI (OVCAR-5 ovarian): > 100 µM
- TGI (U251 CNS): > 100 µM
- TGI (PC-3 prostate): 83.9 µM
- TGI (RXF 393 renal): 75.4 µM
- TGI (SNB-19 CNS): > 100 µM
- TGI (SF-539 CNS): > 100 µM
- TGI (SK-MEL-2 melanoma): > 100 µM
- TGI (UACC-62 melanoma): > 100 µM
- TGI (OVCAR-3 ovarian): > 100 µM
- TGI (HL-60(TB) leukemia): 75.3 µM
- TGI (M14 melanoma): > 100 µM
- TGI (IGROV1 ovarian): > 100 µM
- TGI (NCI-H23 lung): > 100 µM
- TGI (EKVX NSCLC): > 100 µM
- TGI (SN12C renal): > 100 µM
- TGI (KM12 colon): > 100 µM
- TGI (CCRF-CEM leukemia): > 100 µM
- TGI (MOLT-4 leukemia): > 100 µM
- TGI (786-0 renal): > 100 µM
- TGI (HCC-2998 colon): > 100 µM
- TGI (TK-10 renal): > 100 µM
- TGI (OVCAR-4 ovarian): > 100 µM
- TGI (MDA-MB-231 breast): > 100 µM
- TGI (HCT-116 colon): > 100 µM
- TGI (NCI-H522 lung): > 100 µM
- TGI (HCT-15 colon): > 100 µM
- TGI (MDA-MB-435): > 100 µM
- TGI (SK-OV-3 ovarian): > 100 µM
- TGI (MCF7 breast): > 100 µM
- TGI (OVCAR-8 ovarian): > 100 µM
- TGI (SNB-75 CNS): > 100 µM
- TGI (MALME-3M melanoma): > 100 µM
- TGI (SW-620 colon): > 100 µM
- TGI (NCI-H226 lung): > 100 µM
- TGI (UO-31 renal): > 100 µM
- TGI (SK-MEL-28 melanoma): > 100 µM
- TGI (HOP-92 NSCLC): > 100 µM
- TGI (RPMI-8226 leukemia): > 100 µM
- TGI (NCI/ADR-RES ovarian): > 100 µM
- TGI (MDA-N): > 100 µM
- TGI (COLO 205 colon): > 100 µM
- TGI (SF-295 CNS): > 100 µM
- TGI (DU-145 prostate): > 100 µM
- TGI (UACC-257 melanoma): > 100 µM
- TGI (HOP-62 NSCLC): > 100 µM
- TGI (A498 renal): > 100 µM
- TGI (LOX IMVI melanoma): > 100 µM
- TGI (K-562 leukemia): > 100 µM
- TGI (SK-MEL-5 melanoma): > 100 µM
- TGI (ACHN renal): > 100 µM
- TGI (CAKI-1 renal): > 100 µM
- TGI (T-47D breast): > 100 µM

SMILES: CCc1nnc(CC)n1N1C(=O)CCC1=O
- TGI (A549 NSCLC): > 100 µM
- TGI (HT29 colon): > 100 µM
- TGI (OVCAR-5 ovarian): > 100 µM
- TGI (U251 CNS): > 100 µM
- TGI (PC-3 prostate): > 100 µM
- TGI (RXF 393 renal): > 100 µM
- TGI (SNB-19 CNS): > 100 µM
- TGI (SF-539 CNS): > 100 µM
- TGI (SK-MEL-2 melanoma): > 100 µM
- TGI (UACC-62 melanoma): > 100 µM
- TGI (OVCAR-3 ovarian): > 100 µM
- TGI (M14 melanoma): > 100 µM
- TGI (IGROV1 ovarian): > 100 µM
- TGI (BT-549 breast): > 100 µM
- TGI (NCI-H23 lung): > 100 µM
- TGI (EKVX NSCLC): > 100 µM
- TGI (SR leukemia): > 100 µM
- TGI (SN12C renal): > 100 µM
- TGI (KM12 colon): > 100 µM
- TGI (CCRF-CEM leukemia): > 100 µM
- TGI (MOLT-4 leukemia): > 100 µM
- TGI (786-0 renal): > 100 µM
- TGI (HCC-2998 colon): > 100 µM
- TGI (TK-10 renal): > 100 µM
- TGI (OVCAR-4 ovarian): > 100 µM
- TGI (MDA-MB-231 breast): > 100 µM
- TGI (HCT-116 colon): > 100 µM
- TGI (NCI-H522 lung): > 100 µM
- TGI (HCT-15 colon): > 100 µM
- TGI (MDA-MB-435): > 100 µM
- TGI (SK-OV-3 ovarian): > 100 µM
- TGI (MCF7 breast): > 100 µM
- TGI (OVCAR-8 ovarian): > 100 µM
- TGI (SNB-75 CNS): > 100 µM
- TGI (SF-268 CNS): > 100 µM
- TGI (SW-620 colon): > 100 µM
- TGI (UO-31 renal): > 100 µM
- TGI (SK-MEL-28 melanoma): > 100 µM
- TGI (HOP-92 NSCLC): > 100 µM
- TGI (RPMI-8226 leukemia): > 100 µM
- TGI (NCI/ADR-RES ovarian): > 100 µM
- TGI (MDA-N): > 100 µM
- TGI (COLO 205 colon): > 100 µM
- TGI (SF-295 CNS): > 100 µM
- TGI (DU-145 prostate): > 100 µM
- TGI (UACC-257 melanoma): > 100 µM
- TGI (HOP-62 NSCLC): > 100 µM
- TGI (LOX IMVI melanoma): > 100 µM
- TGI (K-562 leukemia): > 100 µM
- TGI (SK-MEL-5 melanoma): > 100 µM
- TGI (ACHN renal): > 100 µM
